Laboratory results from ChEMBL document CHEMBL1201862, “PubChem BioAssay data set” (2004).
The source made the active and inactive calls.

Legend:
cells [1] = format: functional, cell-based
[2] = target: T1, Trace amine-associated receptor 1 (Homo sapiens, UniProt Q96RJ0); assay: Counterscreen for agonists of the human trace amine associated receptor 1 (hTAAR1): Fluorescence-based cell-based high throughput dose response assay to identify hTAAR1 agonist that also desensitize TAAR1 receptor response.; format: functional
T1 sequence (Q96RJ0 whole entry): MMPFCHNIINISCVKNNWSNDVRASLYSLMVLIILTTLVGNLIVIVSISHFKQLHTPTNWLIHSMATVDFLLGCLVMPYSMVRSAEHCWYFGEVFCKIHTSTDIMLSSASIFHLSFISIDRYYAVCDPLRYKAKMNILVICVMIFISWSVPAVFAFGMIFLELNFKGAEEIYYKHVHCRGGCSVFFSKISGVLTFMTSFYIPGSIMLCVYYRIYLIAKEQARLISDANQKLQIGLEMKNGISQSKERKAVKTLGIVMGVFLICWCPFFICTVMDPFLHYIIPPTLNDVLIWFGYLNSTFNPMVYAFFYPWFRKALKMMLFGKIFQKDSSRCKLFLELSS

cells [3] = format: functional, cell-based; remark: listed apart in the source
[4] = target: T1, Trace amine-associated receptor 1; assay: Fluorescence-based cell-based high throughput dose response assay to identify agonists of the human trace amine associated receptor 1 (TAAR1).; format: functional
Beta-galactosidase = Beta-galactosidase (Escherichia coli, UniProt Q8VNN2); assay: Dose response counterscreen for EBI2 assay utilizing the enzyme, b-galactosidase.; format: functional
[5] = target: T2, Heat shock factor protein 1 (Mus musculus, UniProt P38532); assay: enhancement of HSF1-driven luciferase signal – cell-based, NIH3T3, luminescence, dose retest, confirmation (AID 435004); format: functional;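 further: stress induced by proteasome inhibitor MG132 added 30 min after compound; luciferase reporter driven by HSF1 response element in NIH3T3 cells; actives raise luminescence as potentiators of the MG132 stress response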
T2 sequence (P38532 whole entry): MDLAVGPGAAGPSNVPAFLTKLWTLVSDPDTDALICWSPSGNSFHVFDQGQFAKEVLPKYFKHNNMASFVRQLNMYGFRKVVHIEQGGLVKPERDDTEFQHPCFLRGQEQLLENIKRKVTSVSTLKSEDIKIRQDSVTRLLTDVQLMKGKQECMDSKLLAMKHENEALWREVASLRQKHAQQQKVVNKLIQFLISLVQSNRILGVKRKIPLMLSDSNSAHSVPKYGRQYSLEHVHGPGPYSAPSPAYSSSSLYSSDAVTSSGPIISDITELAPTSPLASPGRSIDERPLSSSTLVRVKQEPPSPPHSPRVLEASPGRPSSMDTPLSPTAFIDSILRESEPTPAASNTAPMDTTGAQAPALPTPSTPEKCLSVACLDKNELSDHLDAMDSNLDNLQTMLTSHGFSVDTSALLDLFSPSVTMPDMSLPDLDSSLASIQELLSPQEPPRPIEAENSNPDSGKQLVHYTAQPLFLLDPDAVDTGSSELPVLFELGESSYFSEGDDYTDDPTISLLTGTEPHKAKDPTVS

[6] = target: T3, DNA repair protein RAD52 homolog (Homo sapiens, UniProt P43351); format: functional, biochemical
T3 sequence (P43351 whole entry): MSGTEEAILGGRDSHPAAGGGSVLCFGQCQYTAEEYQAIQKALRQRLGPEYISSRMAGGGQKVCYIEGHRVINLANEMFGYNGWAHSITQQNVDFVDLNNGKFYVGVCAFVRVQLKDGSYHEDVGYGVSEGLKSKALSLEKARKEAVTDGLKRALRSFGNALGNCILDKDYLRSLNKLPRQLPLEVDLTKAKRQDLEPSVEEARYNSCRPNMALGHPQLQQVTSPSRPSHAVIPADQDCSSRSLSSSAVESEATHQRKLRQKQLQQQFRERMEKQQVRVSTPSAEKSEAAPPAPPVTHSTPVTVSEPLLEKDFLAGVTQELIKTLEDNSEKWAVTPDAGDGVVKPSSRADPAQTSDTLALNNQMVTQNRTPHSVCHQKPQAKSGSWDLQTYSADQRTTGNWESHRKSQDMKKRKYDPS

Protein Wnt-3a = Protein Wnt-3a (Mus musculus, UniProt P27467); assay: SAR analysis of small molecule antagonists of Gli-SUFU in a Wnt3a luminescent reporter assay.; format: functional
[7] = target: T4, Mitochondrial peptide methionine sulfoxide reductase (Bos taurus, UniProt P54149); format: functional;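 further: absorbance read-out, biochemical high-throughput dose-response screen for MsrA inhibitors, confirmatory; recombinant bovine MsrA coupled to E. coli TrxB with NADPH and selenocystamine; potency is for inhibitors of MsrA activity on DMSO substrate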
T4 sequence (P54149 whole entry): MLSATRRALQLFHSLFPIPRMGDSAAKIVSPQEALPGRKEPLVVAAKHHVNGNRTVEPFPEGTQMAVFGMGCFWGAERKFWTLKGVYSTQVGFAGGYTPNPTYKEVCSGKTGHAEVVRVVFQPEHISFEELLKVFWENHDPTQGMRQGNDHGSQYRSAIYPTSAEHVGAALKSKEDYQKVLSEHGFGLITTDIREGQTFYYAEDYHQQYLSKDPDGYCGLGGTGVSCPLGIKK

[8] = target: T5, Apoptotic protease-activating factor 1 (Homo sapiens, UniProt O14727); format: functional
T5 sequence (O14727 whole entry): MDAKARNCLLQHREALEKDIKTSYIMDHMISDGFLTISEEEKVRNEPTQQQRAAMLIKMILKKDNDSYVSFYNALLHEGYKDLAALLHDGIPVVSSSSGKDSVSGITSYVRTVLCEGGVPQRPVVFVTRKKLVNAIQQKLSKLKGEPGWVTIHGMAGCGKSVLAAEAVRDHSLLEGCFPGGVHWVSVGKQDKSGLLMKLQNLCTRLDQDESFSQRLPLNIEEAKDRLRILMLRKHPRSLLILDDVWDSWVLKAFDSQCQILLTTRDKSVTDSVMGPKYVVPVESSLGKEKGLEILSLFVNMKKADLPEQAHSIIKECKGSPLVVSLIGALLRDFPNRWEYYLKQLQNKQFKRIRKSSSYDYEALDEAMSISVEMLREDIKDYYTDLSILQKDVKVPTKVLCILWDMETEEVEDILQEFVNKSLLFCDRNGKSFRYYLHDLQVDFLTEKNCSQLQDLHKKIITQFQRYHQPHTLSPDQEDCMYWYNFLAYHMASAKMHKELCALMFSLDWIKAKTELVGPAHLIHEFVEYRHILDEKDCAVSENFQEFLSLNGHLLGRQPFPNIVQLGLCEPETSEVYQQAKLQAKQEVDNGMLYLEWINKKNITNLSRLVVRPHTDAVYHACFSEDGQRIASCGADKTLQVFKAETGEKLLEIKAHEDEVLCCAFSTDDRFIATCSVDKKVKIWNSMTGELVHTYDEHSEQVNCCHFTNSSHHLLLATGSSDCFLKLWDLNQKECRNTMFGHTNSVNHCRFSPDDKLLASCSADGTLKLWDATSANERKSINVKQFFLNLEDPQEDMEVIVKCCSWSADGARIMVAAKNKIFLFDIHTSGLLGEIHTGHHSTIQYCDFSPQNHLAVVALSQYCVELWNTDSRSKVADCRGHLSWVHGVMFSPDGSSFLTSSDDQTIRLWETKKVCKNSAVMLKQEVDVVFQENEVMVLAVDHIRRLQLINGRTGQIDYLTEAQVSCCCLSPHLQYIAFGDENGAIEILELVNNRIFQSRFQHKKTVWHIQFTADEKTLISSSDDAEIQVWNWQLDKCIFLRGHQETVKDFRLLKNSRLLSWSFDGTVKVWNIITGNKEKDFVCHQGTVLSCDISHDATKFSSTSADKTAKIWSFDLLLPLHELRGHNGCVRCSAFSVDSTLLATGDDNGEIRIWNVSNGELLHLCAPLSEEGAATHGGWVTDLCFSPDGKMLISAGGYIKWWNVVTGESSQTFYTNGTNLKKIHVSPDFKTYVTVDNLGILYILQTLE

Protein RecA = target: T6, Protein RecA (Mycobacterium tuberculosis, UniProt P9WHJ3); assay: Fluorescence Cell-Free Homogeneous Dose Retest to Identify Inhibitors of RecA-Intein Splicing Activity. [Related pubchem assays (depositor defined):AID2097, AID2223, AID489010, AID492950]; format: functional
T6 sequence (P9WHJ3 whole entry): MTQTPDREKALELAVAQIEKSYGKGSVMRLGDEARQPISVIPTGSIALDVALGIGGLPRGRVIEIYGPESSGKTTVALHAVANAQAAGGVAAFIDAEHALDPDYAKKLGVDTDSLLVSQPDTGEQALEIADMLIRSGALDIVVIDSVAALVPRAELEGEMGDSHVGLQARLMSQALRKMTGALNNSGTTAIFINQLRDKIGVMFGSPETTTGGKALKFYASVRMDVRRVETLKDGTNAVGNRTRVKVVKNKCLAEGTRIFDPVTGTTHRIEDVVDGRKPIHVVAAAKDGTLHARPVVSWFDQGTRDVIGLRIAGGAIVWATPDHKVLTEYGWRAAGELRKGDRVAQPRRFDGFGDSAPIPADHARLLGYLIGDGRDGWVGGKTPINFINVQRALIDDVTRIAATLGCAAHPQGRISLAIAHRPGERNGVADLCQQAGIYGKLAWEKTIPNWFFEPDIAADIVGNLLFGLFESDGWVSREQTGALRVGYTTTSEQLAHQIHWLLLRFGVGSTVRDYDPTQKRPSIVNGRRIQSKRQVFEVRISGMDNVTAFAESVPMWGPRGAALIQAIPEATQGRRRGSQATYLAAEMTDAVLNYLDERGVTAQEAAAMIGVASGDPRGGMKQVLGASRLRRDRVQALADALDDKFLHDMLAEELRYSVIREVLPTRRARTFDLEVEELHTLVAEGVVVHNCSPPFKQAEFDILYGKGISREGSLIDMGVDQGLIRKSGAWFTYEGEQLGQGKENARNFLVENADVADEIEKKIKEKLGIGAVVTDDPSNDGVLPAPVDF

[9] = target: T7, Replicative DNA helicase DnaB (Mycobacterium tuberculosis, UniProt P9WMR3); assay: DnaB intein splicing inhibitors, dose response, biochemical, cell-free fluorescence (AID 449749); format: functional
T7 sequence (P9WMR3 whole entry): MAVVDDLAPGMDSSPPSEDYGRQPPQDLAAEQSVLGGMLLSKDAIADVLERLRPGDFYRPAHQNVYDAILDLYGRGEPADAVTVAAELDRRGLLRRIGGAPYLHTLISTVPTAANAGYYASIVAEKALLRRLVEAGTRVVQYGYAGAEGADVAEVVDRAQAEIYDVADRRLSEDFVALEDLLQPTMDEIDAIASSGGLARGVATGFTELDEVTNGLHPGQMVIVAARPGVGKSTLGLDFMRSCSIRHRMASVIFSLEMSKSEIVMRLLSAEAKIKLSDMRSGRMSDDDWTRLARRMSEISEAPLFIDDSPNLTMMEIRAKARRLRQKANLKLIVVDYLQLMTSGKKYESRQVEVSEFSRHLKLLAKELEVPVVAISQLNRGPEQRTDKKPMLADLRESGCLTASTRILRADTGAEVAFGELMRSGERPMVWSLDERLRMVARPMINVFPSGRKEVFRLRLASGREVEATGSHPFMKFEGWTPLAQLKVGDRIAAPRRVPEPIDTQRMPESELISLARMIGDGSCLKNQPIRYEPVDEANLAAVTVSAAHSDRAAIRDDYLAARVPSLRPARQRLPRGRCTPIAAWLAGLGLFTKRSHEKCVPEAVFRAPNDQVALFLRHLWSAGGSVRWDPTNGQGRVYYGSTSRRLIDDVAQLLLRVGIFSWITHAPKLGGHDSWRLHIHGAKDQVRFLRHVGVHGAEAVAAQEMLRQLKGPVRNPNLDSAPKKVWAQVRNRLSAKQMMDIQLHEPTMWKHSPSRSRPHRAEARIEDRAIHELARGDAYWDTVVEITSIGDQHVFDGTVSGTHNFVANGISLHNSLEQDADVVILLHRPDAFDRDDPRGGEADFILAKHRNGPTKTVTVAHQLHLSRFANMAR

Sequence of Beta-galactosidase (Q8VNN2 whole entry): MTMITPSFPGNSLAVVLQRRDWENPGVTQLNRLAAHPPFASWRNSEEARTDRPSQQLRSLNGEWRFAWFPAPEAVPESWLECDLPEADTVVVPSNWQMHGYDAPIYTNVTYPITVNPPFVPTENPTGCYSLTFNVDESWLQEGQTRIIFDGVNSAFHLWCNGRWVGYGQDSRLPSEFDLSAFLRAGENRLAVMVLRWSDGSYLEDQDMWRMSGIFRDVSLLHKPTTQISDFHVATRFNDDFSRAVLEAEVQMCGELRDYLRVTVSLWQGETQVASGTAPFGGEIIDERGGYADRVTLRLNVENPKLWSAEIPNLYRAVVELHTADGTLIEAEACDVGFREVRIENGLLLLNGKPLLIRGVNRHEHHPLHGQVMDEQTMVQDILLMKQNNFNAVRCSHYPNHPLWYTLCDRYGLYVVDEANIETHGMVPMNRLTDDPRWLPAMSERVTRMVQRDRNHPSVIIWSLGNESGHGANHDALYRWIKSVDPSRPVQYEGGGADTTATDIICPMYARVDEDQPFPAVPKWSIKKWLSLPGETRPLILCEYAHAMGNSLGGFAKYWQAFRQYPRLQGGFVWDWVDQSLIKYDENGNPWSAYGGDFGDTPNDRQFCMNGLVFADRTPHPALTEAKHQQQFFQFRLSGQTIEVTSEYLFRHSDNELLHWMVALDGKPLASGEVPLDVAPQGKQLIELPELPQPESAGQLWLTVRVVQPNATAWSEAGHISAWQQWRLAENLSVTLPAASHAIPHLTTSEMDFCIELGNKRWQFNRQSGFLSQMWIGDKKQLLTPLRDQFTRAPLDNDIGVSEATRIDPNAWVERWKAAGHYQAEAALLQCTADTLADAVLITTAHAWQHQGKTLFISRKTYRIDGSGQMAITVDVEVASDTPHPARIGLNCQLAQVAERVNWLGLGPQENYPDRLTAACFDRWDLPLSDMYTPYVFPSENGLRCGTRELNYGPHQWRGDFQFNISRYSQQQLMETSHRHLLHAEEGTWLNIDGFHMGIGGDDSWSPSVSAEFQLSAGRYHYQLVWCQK
Sequence of Protein Wnt-3a (P27467 whole entry): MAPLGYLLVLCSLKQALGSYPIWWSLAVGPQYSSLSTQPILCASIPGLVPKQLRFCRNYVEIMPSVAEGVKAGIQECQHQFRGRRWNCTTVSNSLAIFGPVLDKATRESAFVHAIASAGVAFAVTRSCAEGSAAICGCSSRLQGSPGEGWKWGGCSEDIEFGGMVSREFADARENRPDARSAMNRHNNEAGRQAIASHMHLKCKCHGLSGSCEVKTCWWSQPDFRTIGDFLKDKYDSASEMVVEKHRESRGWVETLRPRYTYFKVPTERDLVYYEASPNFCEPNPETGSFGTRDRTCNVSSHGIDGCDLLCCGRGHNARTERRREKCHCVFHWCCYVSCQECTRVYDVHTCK

Structure (SMILES): CCn1c(C)nc2cc(C(=O)NNC(=O)Nc3ccc(Cl)cc3)ccc21
- EC50 (cells [1]): > 29.9 µM (inactive)
- IC50 [2]: > 29.9 µM (inactive)
- IC50 (cells [3]): > 29.9 µM (inactive)
- EC50 [4]: > 29.9 µM (inactive)

Structure (SMILES): Cn1c(=O)c(=O)n(C)c2cc(S(=O)(=O)NCCc3ccccc3)ccc21
- EC50 (cells [1]): > 29.9 µM (inactive)
- IC50 [2]: 8.95 µM (active)
- IC50 (cells [3]): > 29.9 µM (inactive)
- EC50 [4]: 2.21 µM (active)

Structure (SMILES): CCOC(=O)N1CCN(C(=O)c2cc3c(s2)-c2c(C)cccc2OC3)CC1
- IC50 (Beta-galactosidase): > 80 µM (inactive)

Structure (SMILES): O=C(CSc1ccc(Cl)cc1)N1CCN(c2c(Cl)cccc2[N+](=O)[O-])CC1
- EC50 [5]: 14.8 µM (active)
- IC50 (Beta-galactosidase): > 80 µM (inactive)

Structure (SMILES): Cc1ccc(Nc2ccc(C(=O)NC3CCCCC3)cn2)cc1
- IC50 (Beta-galactosidase): > 80 µM (inactive)

Structure (SMILES): CCCCCCCCCCCCCCCC[n+]1ccccc1
- AC50 [6]: 4.21 µM (active)

Structure (SMILES): CC(=NCCc1ccccc1)C1=C(O)OCC1
- EC50 (cells [1]): > 30 µM (inactive)
- IC50 [2]: 2.35 µM (active)
- IC50 (cells [3]): > 30 µM (inactive)
- EC50 [4]: 0.65 µM (active)

Structure (SMILES): Cc1nc(NC(=O)c2ccccc2)cc(N2CCCC2)n1
- IC50 (Protein Wnt-3a): > 21.8 µM (inactive)

Structure (SMILES): O=C(Nc1cc(N2CCCCC2)ncn1)c1ccsc1
- IC50 (Protein Wnt-3a): > 21.8 µM (inactive)

Structure (SMILES): CCN(CC)c1cc(NC(=O)c2cccc(F)c2)ncn1
- IC50 (Protein Wnt-3a): > 21.8 µM (inactive)

Structure (SMILES): O=C(O)c1cccc(NC2=C(n3nnc4ccccc43)C(=O)c3ccccc3C2=O)c1
- IC50 [7]: 31.4 µM (inactive)
- IC50 [8]: 10.9 µM (active)
- EC50 (Protein RecA): 2.26 µM (active)
- AC50 [9]: 2.53 µM (active)
